# Experimental data reported in ChEMBL document CHEMBL1201862, “PubChem BioAssay data set” (2004).
#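 Five compound concentrations were applied to cells in 96-well plates for 48 hours; endpoints were derived by simple linear interpolation of the resulting dose-response curve. GI50 marks 50% less growth.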 Calls of active or inactive are those of the source. Rule as the data show it: active = GI50 up to about 1.1 µM and inactive = higher.
# Legend:
# Test in all cases: NCI anticancer screen, dose series, 48 h
# [1] = tested on: DU-145
# [2] = tested on: MCF7
# [3] = tested on: TK-10
# [4] = tested on: MDA-MB-231
# [5] = tested on: PC-3
# [6] = tested on: HOP-62
# [7] = tested on: NCI-H460
# [8] = tested on: OVCAR-5
# [9] = tested on: SR
# [10] = tested on: SK-OV-3
# [11] = tested on: MOLT-4
# [12] = tested on: RXF 393
# [13] = tested on: NCI-H522
# [14] = tested on: BT-549
# [15] = tested on: SF-539
# [16] = tested on: UACC-62
# [17] = tested on: HCC 2998
# [18] = tested on: LOX IMVI
# [19] = tested on: NCI-H23
# [20] = tested on: M14
# [21] = tested on: Malme-3M
# [22] = tested on: OVCAR-8
# [23] = tested on: COLO 205
# [24] = tested on: SF-295
# [25] = tested on: OVCAR-3
# [26] = tested on: U-251
# [27] = tested on: SF-268
# [28] = tested on: HT-29
# [29] = tested on: ACHN
# [30] = tested on: SW-620
# [31] = tested on: IGROV-1
# [32] = tested on: A498
# [33] = tested on: CAKI-1
# [34] = tested on: UACC-257
# [35] = tested on: K562
# [36] = tested on: Hs-578T
# [37] = tested on: MDA-N
# [38] = tested on: HCT-15
# [39] = tested on: SK-MEL-2
# [40] = tested on: CCRF-CEM
# [41] = tested on: NCI-H226
# [42] = tested on: MDA-MB-435
# [43] = tested on: A549
# [44] = tested on: SK-MEL-5
# [45] = tested on: HOP-92
# [46] = tested on: SK-MEL-28
# [47] = tested on: OVCAR-4
# [48] = tested on: SNB-75
# [49] = tested on: SNB-19
# [50] = tested on: 786-0
# [51] = tested on: SN12C
# [52] = tested on: KM12
# [53] = tested on: T47D
# [54] = tested on: EKVX
# [55] = tested on: RPMI-8226
# [56] = tested on: HCT-116
# [57] = tested on: HL-60
# [58] = tested on: NCI/ADR-RES
# [59] = tested on: UO-31
smiles,measurement,setting,value
c1ccc2cc(CNCCOCCOCCNCc3ccc4ccccc4c3)ccc2c1,GI50,[1],1.78 µM (inactive)
same,GI50,[2],1.79 µM (inactive)
same,GI50,[3],1.62 µM (inactive)
same,GI50,[4],1.57 µM (inactive)
same,GI50,[5],2.17 µM (inactive)
same,GI50,[6],1.85 µM (inactive)
same,GI50,[7],1.64 µM (inactive)
same,GI50,[8],1.9 µM (inactive)
same,GI50,[9],1.26 µM (inactive)
same,GI50,[10],3.13 µM (inactive)
same,GI50,[11],1.92 µM (inactive)
same,GI50,[12],1.78 µM (inactive)
same,GI50,[13],1.83 µM (inactive)
same,GI50,[14],1.78 µM (inactive)
same,GI50,[15],1.85 µM (inactive)
same,GI50,[16],2.06 µM (inactive)
same,GI50,[17],0.208 µM (active)
same,GI50,[18],1.46 µM (inactive)
same,GI50,[19],2 µM (inactive)
same,GI50,[20],1.95 µM (inactive)
same,GI50,[21],1.76 µM (inactive)
same,GI50,[22],1.77 µM (inactive)
same,GI50,[23],1.48 µM (inactive)
same,GI50,[24],1.64 µM (inactive)
same,GI50,[25],1.67 µM (inactive)
same,GI50,[26],1.97 µM (inactive)
same,GI50,[27],1.97 µM (inactive)
same,GI50,[28],1.31 µM (inactive)
same,GI50,[29],1.79 µM (inactive)
same,GI50,[30],1.91 µM (inactive)
same,GI50,[31],1.7 µM (inactive)
same,GI50,[32],1.71 µM (inactive)
same,GI50,[33],1.81 µM (inactive)
same,GI50,[34],1.49 µM (inactive)
same,GI50,[35],0.446 µM (active)
same,GI50,[36],1.57 µM (inactive)
same,GI50,[37],1.65 µM (inactive)
same,GI50,[38],1.94 µM
same,GI50,[39],1.91 µM (inactive)
same,GI50,[40],1.97 µM (inactive)
same,GI50,[41],2.09 µM (inactive)
same,GI50,[42],1.8 µM (inactive)
same,GI50,[43],1.74 µM (inactive)
same,GI50,[44],2.39 µM (inactive)
same,GI50,[45],1.52 µM (inactive)
same,GI50,[46],1.97 µM (inactive)
same,GI50,[47],2.47 µM (inactive)
same,GI50,[48],1.95 µM (inactive)
same,GI50,[49],2.31 µM (inactive)
same,GI50,[50],1.57 µM (inactive)
same,GI50,[51],2.16 µM (inactive)
same,GI50,[52],1.6 µM (inactive)
same,GI50,[53],2.74 µM (inactive)
same,GI50,[54],2.54 µM (inactive)
same,GI50,[55],1.19 µM (inactive)
same,GI50,[56],1.58 µM (inactive)
same,GI50,[57],1.85 µM (inactive)
Cc1cc2c(cc1C)C(=O)/C(=C/c1ccccc1C(=O)O)C2,GI50,[1],> 100 µM (inactive)
same,GI50,[2],50 µM (inactive)
same,GI50,[3],> 100 µM (inactive)
same,GI50,[5],33.9 µM (inactive)
same,GI50,[6],42.4 µM (inactive)
same,GI50,[7],40.5 µM (inactive)
same,GI50,[8],23.6 µM (inactive)
same,GI50,[9],21.2 µM (inactive)
same,GI50,[11],25.4 µM (inactive)
same,GI50,[12],> 100 µM (inactive)
same,GI50,[13],65.6 µM (inactive)
same,GI50,[14],25.6 µM (inactive)
same,GI50,[15],18.7 µM (inactive)
same,GI50,[16],54.7 µM (inactive)
same,GI50,[17],27.4 µM (inactive)
same,GI50,[58],54.8 µM (inactive)
same,GI50,[18],25.9 µM (inactive)
same,GI50,[19],19.6 µM (inactive)
same,GI50,[20],> 100 µM (inactive)
same,GI50,[21],47.8 µM (inactive)
same,GI50,[22],38.4 µM (inactive)
same,GI50,[23],19.5 µM (inactive)
same,GI50,[24],32.5 µM (inactive)
same,GI50,[25],31.7 µM (inactive)
same,GI50,[26],22.9 µM (inactive)
same,GI50,[27],31.8 µM (inactive)
same,GI50,[28],39.1 µM (inactive)
same,GI50,[29],55 µM (inactive)
same,GI50,[30],46.8 µM (inactive)
same,GI50,[31],> 100 µM (inactive)
same,GI50,[32],31.8 µM (inactive)
same,GI50,[33],72.4 µM (inactive)
same,GI50,[34],> 100 µM (inactive)
same,GI50,[35],37.2 µM (inactive)
same,GI50,[36],34 µM (inactive)
same,GI50,[37],47.8 µM (inactive)
same,GI50,[38],36.6 µM
same,GI50,[39],35.4 µM (inactive)
same,GI50,[40],30.9 µM (inactive)
same,GI50,[41],15.3 µM (inactive)
same,GI50,[42],34.8 µM (inactive)
same,GI50,[43],67.5 µM (inactive)
same,GI50,[44],47.6 µM (inactive)
same,GI50,[45],33.3 µM (inactive)
same,GI50,[46],64.4 µM (inactive)
same,GI50,[47],35 µM (inactive)
same,GI50,[48],30 µM (inactive)
same,GI50,[49],34.7 µM (inactive)
same,GI50,[50],40.3 µM (inactive)
same,GI50,[51],45.2 µM (inactive)
same,GI50,[52],55.5 µM (inactive)
same,GI50,[53],47.8 µM (inactive)
same,GI50,[54],50.7 µM (inactive)
same,GI50,[55],24.3 µM (inactive)
same,GI50,[56],37.9 µM (inactive)
same,GI50,[57],30.5 µM (inactive)
same,GI50,[59],50.6 µM (inactive)
CCC(=O)Nc1ccc(/N=C/c2cccc(Oc3ccccc3)c2)cc1,GI50,[1],46.2 µM (inactive)
same,GI50,[2],44.1 µM (inactive)
same,GI50,[5],64.4 µM (inactive)
same,GI50,[6],37.2 µM (inactive)
same,GI50,[9],16.2 µM (inactive)
same,GI50,[10],> 100 µM (inactive)
same,GI50,[11],23.9 µM (inactive)
same,GI50,[12],50.9 µM (inactive)
same,GI50,[13],> 100 µM (inactive)
same,GI50,[14],> 100 µM (inactive)
same,GI50,[15],16.4 µM (inactive)
same,GI50,[16],95.7 µM (inactive)
same,GI50,[58],42.3 µM (inactive)
same,GI50,[18],29.6 µM (inactive)
same,GI50,[19],> 100 µM (inactive)
same,GI50,[20],46.6 µM (inactive)
same,GI50,[21],> 100 µM (inactive)
same,GI50,[22],22.3 µM (inactive)
same,GI50,[23],44.6 µM (inactive)
same,GI50,[24],> 100 µM (inactive)
same,GI50,[25],63.8 µM (inactive)
same,GI50,[27],42.1 µM (inactive)
same,GI50,[28],49.2 µM (inactive)
same,GI50,[29],> 100 µM (inactive)
same,GI50,[30],37 µM (inactive)
same,GI50,[31],63.4 µM (inactive)
same,GI50,[32],> 100 µM (inactive)
same,GI50,[33],> 100 µM (inactive)
same,GI50,[35],24.4 µM (inactive)
same,GI50,[36],> 100 µM (inactive)
same,GI50,[37],40.1 µM (inactive)
same,GI50,[38],> 100 µM
same,GI50,[39],> 100 µM (inactive)
same,GI50,[40],12.6 µM (inactive)
same,GI50,[41],18.2 µM (inactive)
same,GI50,[42],47.3 µM (inactive)
same,GI50,[43],> 100 µM (inactive)
same,GI50,[44],33 µM (inactive)
same,GI50,[45],85.3 µM (inactive)
same,GI50,[46],86.9 µM (inactive)
same,GI50,[47],55.3 µM (inactive)
same,GI50,[48],> 100 µM (inactive)
same,GI50,[49],> 100 µM (inactive)
same,GI50,[50],42.4 µM (inactive)
same,GI50,[51],> 100 µM (inactive)
same,GI50,[52],> 100 µM (inactive)
same,GI50,[53],91 µM (inactive)
same,GI50,[54],65.5 µM (inactive)
same,GI50,[55],21.8 µM (inactive)
same,GI50,[56],39.8 µM (inactive)
same,GI50,[57],26.7 µM (inactive)
same,GI50,[59],70.5 µM (inactive)
